Here are results for one molecule from patent publication US20110217337A1, “BIOACTIVE AGENT FOR BONE TISSUE ENGINEERING” (UNIVERSITY OF CONNECTICUT, priority 2010, published 2011).

The subject of data set [1] is MC3T3E1 cells. The data set is described as follows: Cell adhesion on PLAGA matrices (crystal violet stain). The format is cell-based. The following applies: 100 μM vs untreated, adhesion for at least 1 h. Here is the method: FIG. 2. Effects of 6-Bnz-cAMP on cell adhesion in MC3T3E1 on PLAGA matrices. Cells were treated with 100 μM 6-Bnz-cAMP or untreated. Cells were allowed to adhere for at least 1 h, and nonadherent cells were removed by washing with phosphate buffer saline (PBS). The adhered cells were stained with crystal violet solution for 15 minutes at room temperature and the absorbed stain dye was then solubilized in 1% SDS solution. The amount of dye taken up by the cells was measured in a spectrophotometer. The plots shown are representative of two independent experiments, each done in triplicate (n=3). Error bars represent SD.
For these experiments, the polymer component of the scaffold, poly(lactic-co-glycolide) (PLAGA) was selected because of its documented degradability and biocompatibility.
More specifically, thin film discs of poly(lactic-co-glycolide) (PLAGA) were fabricated using a traditional solvent-casting method. In this process, the polymer was first dissolved in methylene chloride, then poured into a Teflon-coated dish. The dishes were then placed in a −20° C. freezer to allow solvent evaporation. […]
Adhesion: In the cell adhesion study presented in FIG. 2 cells were allowed to adhere for at least 1 h, and nonadherent cells were removed by washing with phosphate buffer saline (PBS). […] The amount of dye taken up by the cells was measured in a spectrophotometer.

Data set [2] has as its system MC3T3E1 cells. The experiment in a line: Cell proliferation, PicoGreen dsDNA assay. The settings on record: 100 μM in regular growth medium. It is filed as cell-based. Here is the method:
FIG. 3. 6-Bnz-cAMP promotes cell growth in the earliest day of cell culture (Day 1) and maintains the cell proliferation rate at Day 7 and Day 14. Error bars represent SD.
MC3T3E1 subtype 4 cell line was purchased from the […] (ATCC). The cells were grown to confluence, then seeded onto PLAGA discs at a density of 50,000 cells/scaffold. The cells were cultured on the discs in vitro in a 37° C. and 5% CO2 environment, using MEM alpha cell culture medium +10% Fetal Bovine Serum as a nutrient source. At specific time points, cultured cells were collected for various assays i.e., cell adhesion assays, cell proliferation assays, and cell differentiation studies.
Proliferation: Cell proliferation was tested using a PicoGreen dsDNA assay kit (Molecular Probes, Eugene, Oreg.) The procedure of the PicoGreen dsDNA assay was performed according to the manufacturer's instructions. Briefly, 5×10^4 cells ml^−1 were seeded in a well of a tissue culture plate. 100 μM of 6-Bnz-cAMP was added to the regular growth medium during cell seeding. The regular growth medium and 6-Bnz-cAMP (100 μM) were replaced every 3 to 4 days.

Data set [3] relates to Runx2. The experiment in a line: Runx2 expression by SDS-PAGE and Western blotting. The format is cell-based. The following applies: day 21. Here is the method:
FIG. 4. […] It is thought that Runx2 serves as a gatekeeper to promote osteogenesis, thus it is one of the most important marker for osteogenesis. In the control panel, consistent with the reported data in literature, Runx2 was detected in the presence of osteogenic medium but remain undetectable level without the osteogenic medium. […] The blot of tubulin serves as loading control for each sample loading.
Differentiation: Osteogenic protein markers were analyzed SDS-PAGE and Western Blotting. Protein samples were resolved by SDS-PAGE on precast 12.5% […] gels (Bio-Rad, Hercules, Calif.) and transferred electrophoretically onto polyvinylidene difluoride membranes according to the manufacturer's instructions (Bio-Rad, Hercules, Calif.). Membranes were blocked with skim milk and then probed with respective antibodies. […]
MC3T3E1 cells expressed classic markers for the osteoblastic phenotype in the presence of 6-Bnz-cAMP in the absence of osteogenic medium in samples collected at day 21. The level of Runx2, a bone-specific transcription factor which increases bone formation through the stimulation of bone-marker gene transcription in osteoblasts, was detected by immunoblotting (FIG. 4). In the control panel, Runx2 was detected in the presence of osteogenic medium but remain undetectable level without the osteogenic medium. […]

Data set [4] deals with Epac-Rap1 pathway. The settings on record: unlike cAMP; cited from earlier work.
The conditions of data set [5]: water and a variety of pharmaceutically useful buffers and solvents; cited from earlier work.
Data set [6] concerns phophodiesterase. The following applies: cited from earlier work.
For data set [7] the following is noted: designed to resist enzymatic degradation in vivo; cited from earlier work.

As to `O=C(Nc1ncnc2c1ncn2C1O[C@@H]2COP(=O)([O-])O[C@H]2[C@H]1O)c1ccccc1.[Na+]` (stereo partly drawn) [6-Bnz-cAMP, N^6-Benzoyladenosine-3′,5′-cyclic monophosphate], the initial cell adhesion entry in data set [1] is reported as “enhances the initial cell adhesion”. In addition, the proliferation rate result in data set [2] (Days 7, 14 and 21) is “maintained”. The cell growth result in data set [2] (first day of culturing (Day 1)) is “promote cell growth”. Moreover, the “expression of Runx2” value was “induces the expression of Runx2” in data set [3] (100 μM, absence of osteogenic medium) and “further enhanced the expression of Runx2” in data set [3] (osteogenic medium together with 6-Bnz-cAMP, vs 6-Bnz-cAMP alone). For the same molecule, the “activation of the Epac-Rap1 pathway” value in data set [4] is on record as “does not activate”. For the same molecule, the solubility entry in data set [5] is reported as “soluble in water”. Moreover, in data set [6], the hydrolysis by phophodiesterase result was “resistant to hydrolysis”. Also, the half-life entry in data set [7] is given as “long half-life”.
